Assays:
CX3CR1 receptor = molecular target: T1, CX3CR1 receptor (Homo sapiens, UniProt P49238); experiment: Fractalkine (CX3CR1) GTPgS inhibition assay (96 well); type: biochemical; conditions: CX3CR1 CHO K1 membranes, inhibition of 35S-GTPγS signal generated by EC80 of fractalkine, triplicate
T1 construct: host or cells: CHO K1 cells; membranes prepared in-house
T1 sequence (P49238 1-355): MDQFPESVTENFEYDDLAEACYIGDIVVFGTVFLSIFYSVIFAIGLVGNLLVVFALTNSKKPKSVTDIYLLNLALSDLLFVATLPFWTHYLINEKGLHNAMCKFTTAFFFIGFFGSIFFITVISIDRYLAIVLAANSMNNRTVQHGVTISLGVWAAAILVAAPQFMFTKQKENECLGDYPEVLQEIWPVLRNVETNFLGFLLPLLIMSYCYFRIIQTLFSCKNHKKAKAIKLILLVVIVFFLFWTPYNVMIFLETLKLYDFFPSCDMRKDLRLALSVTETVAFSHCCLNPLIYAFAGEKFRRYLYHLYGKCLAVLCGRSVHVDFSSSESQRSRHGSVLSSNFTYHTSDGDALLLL
Experimental: The activation of the CX3CR1 receptor by fractalkine can be detected using a GTPγS assay. ^35S-labelled GTPγS is added to the reaction (together with compounds and CX3CR1 CHO K1 membranes) to bind to the G-protein in the membranes instead of GTP upon activation of the receptor. Since ^35S-labelled GTPγS is non-hydrolysable the receptor will stay in its active state. The bound ^35S-labelled GTPγS is separated from free by vacuum filtration onto 96 well filters. In inhibition assay mode the receptor in the membranes will be activated with the EC80 of fractalkine and further the CX3CR1 antagonists will inhibit the signal generated by the EC80 of fractalkine.
Ligand: Fractalkine, PeproTech, cat no 300-31, 1 mg, −20° C. Diluted in dH2O+0.05% BSA to a stock concentration of 0.1 mM, Stored in −20° C.
^35S-GTPγS, Perkin Elmer (NEN), Cat no NEG030H, Specific activity 1250 Ci/mmol, 1 mCi/ml, −20° C.
Membranes: membranes are prepared inhouse from CX3CR1 CHO K1 cells purchased from Euroscreen. Protein concentration: 5.7 mg/ml, −80° C.
• HEPES: Sigma H-3375, RT • MgCl2×6H2O: Merck, cat no 5833, RT • NaCl: Merck, cat no 6404, RT • GDP: −20° C., Sigma cat no G-7127, Diluted in dH2O to a stock concentration of 10 mM. • Stored in −20° C. • Gelatine type A: Sigma, cat no G2625, 1% stock in water (heating is necessary to dissolve gelatine) made fresh on the day of the experiment RT
• Tris: Tris-HCl: Sigma, cat no T1503, RT • Tris-base: Sigma, cat no T3283, RT • MgCl2×6H2O: Merck, cat no 5833, RT • NaCl: Merck, cat no 6404, RT • Assay plates: 96 well, Nunc, 269620 • Filter: Printed Filtermat B, Wallac • Scintillator sheets: MeltiLex B, PerkinElmer
Assay plates are prepared by CMT with 1 compound/plate. 2 μl compound with the highest concentration 3.3 mM diluted with a factor 3 in 10 steps. This gives a final assay concentration of 33 μM for the highest concentration.
100 μl membranes (5 μg/well) diluted in 2× assay buffer is added to the assay plate.
100 μl ^35S-GTPγS (final assay concentration: 0.00056 μCi/μl) diluted in dH2O with EC80 of fractalkine is then added. […]
The plate is read in a microbeta. […]

[1] = system: human whole blood, adhesion to fractalkine; experiment: Human whole blood flow adhesion assay; type: cell-based; conditions: heparinised human whole blood, adhesion to recombinant human fractalkine under flow, 15 min preincubation
Experimental: Flow adhesion assays were performed using a microfluidics system (Cellix Microfluidics SP1.0 platform) and 8-channel biochips (Cellix Vena 8 biochips). Channel 1 was used as control and channels 2 to 8 to evaluate seven different concentrations of antagonist. To 25 monitor adhesion to fractalkine, channels were first coated with 15 μl of anti-His Tag antibody at 25 μg/ml for 2 hours. Channels were then washed three times with 15 μl DPBS to remove unbound antibody. Subsequently, 15 μl of recombinant human fractalkine at 2.5 μg/ml was added to each channel and biochips were left at 4° C. overnight in a humidified atmosphere. The following day, channels were washed three times with 15 μl DPBS prior to blocking with 15 μl of BSA at 10 mg/ml for 30 minutes. Human whole blood was obtained by venipuncture using heparin as anti-coagulant. DMSO carrier or compounds in DMSO were added to 0.3 ml blood in 1.5 ml Eppendorf tubes followed by incubation at room temperature for 15 minutes. The Vena 8 biochip was placed on a microscope stage and channels were washed with RPMI 1640 medium containing 1% BSA in preparation for the assays. […] Adhered cells were subsequently quantified using DucoCell software (Cellix).

IC50 (CX3CR1 receptor) [nM]	IC50 [1] [nM]	SMILES
2600	–	CC(C)C[C@H](CO)Nc1nc(SC(C)c2ccccn2)nc2[nH]c(=O)sc12 (stereo partly drawn) [Example 1, 7-[(R)-1-hydroxy-4-methylpentan-2-ylamino]-5-[1-(pyridin-2-yl)ethylthio]thiazolo[4,5-d]pyrimidin-2(3H)-one]
9200	–	CC(C)CC(CO)Nc1nc(SC(C)c2ccccn2)nc2[nH]c(=O)sc12 (single isomer, unassigned; isomer 2) [Example 13]
1000	2400	CC(C)CC(CO)Nc1nc(SC(C)c2ccccn2)nc2[nH]c(=O)sc12 (single isomer, unassigned; isomer 1) [Example 12]
